Target: T1, PscE-PscG interaction (Pseudomonas aeruginosa, UniProt P95435+Q9I317)
T1 construct: made in house; host or cells: E. coli
Assay: ELISA test of inhibition of the PscE-PscG interaction
Format: binding
Conditions: 4 h, read-out: PscE-PscG at 50 μM
Experimental: 50 μL of PscG protein at 1 μM (for screening libraries) or 2.2 μM (for screening newly synthesized molecules) is incubated in a NUNC 96-well plate for 8 h at 4° C. The wells are washed three times with 200 μL of 1× PBS/0.1% Tween20®. The wells are treated overnight at 4° C. with 200 μL of a 5% milk solution in 1× PBS/0.1% Tween20®. The solution is then discarded, and the plate is drained dry.
The test is carried out as follows:
Negative control (lowest signal level): 100 μL of buffer ([…] Tris-HCl, 250 mM NaCl, pH 8.0);
Positive control (highest signal level): 50 μL of buffer and 50 μL of a test solution at 25 (library screening) or 3 μM (screening of analogue molecules) of the PscE protein;
Test of the inhibitors: 40 μL buffer, 50 μL of a solution at 25 μM (library screening) or 3 μM (screening of analogue molecules) of PscE protein and 10 μL of the solution containing the inhibitor to be tested.
The solutions are left for 4 h at room temperature.
The wells are washed three times with 200 μL of 1× PBS/0.1% Tween20®. The anti-PscE antibody diluted to 1:2,000 in 1× PBS/0.1% Tween20®, 50 μL, is added and the whole is left 2 h at room temperature. The wells are washed three times with 200 μL of 1× PBS/0.1% Tween20®. The HRP-conjugated anti-mouse antibody is diluted to 1:5,000 in 1× PBS/0.1% Tween20® and 50 μL is added and left for 2 h at room temperature. The wells are washed three times with 200 μL of 1× PBS/0.1% Tween20®.
The ELISA test is developed by adding 50 μL of TMB reagent followed by incubation for 15 minutes at room temperature in the dark. The reaction is stopped by adding 50 μL of 2N HCl. The plate is read at 450 nm.

T1 sequence (Q9I317 whole entry): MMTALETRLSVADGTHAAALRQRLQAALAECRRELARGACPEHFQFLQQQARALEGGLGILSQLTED
T1 sequence (P95435 whole entry): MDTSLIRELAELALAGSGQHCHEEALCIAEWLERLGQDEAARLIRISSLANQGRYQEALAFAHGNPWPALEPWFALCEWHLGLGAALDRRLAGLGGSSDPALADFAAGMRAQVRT

Structure (SMILES): CC(=O)Oc1c(-c2cn(CCCCCCCCCCOCCCc3ccc[n+](CCCCCCCCCCCCOCCCc4cccnc4)c3)nn2)cc(Cl)c2cccnc12 [molecule 50, 3-(3-(10-(4-(8-acetoxy-5-chloroquinolin-7-yl)-1H-1,2,3-triazol-1-yl)decyloxy)propyl)-1-(12-(3-(pyridin-3-yl)propoxy)dodecyl)pyridinium chloride]
- inhibition at 50 µM: 18.9%

Structure (SMILES): CC(=O)Oc1c(-c2cn(CCCCCCCCCCCCOCCCc3ccc[n+](CCCCCCCCCCOCCCc4cccnc4)c3)nn2)cc(Cl)c2cccnc12 [molecule 51, 3-(3-(12-(4-(8-acetoxy-5-chloroquinolin-7-yl)-1H-1,2,3-triazol-1-yl)dodecyloxy)propyl)-1-(10-(3-(pyridin-3-yl)propoxy)decyl)pyridinium chloride]
- inhibition at 50 µM: 28.9%

Structure (SMILES): CC(=O)Oc1c(-c2cn(CCCCCCCCCCCCOCCCc3ccc[n+](CCCCCCCCCCCCOCCCc4cccnc4)c3)nn2)cc(Cl)c2cccnc12 [molecule 52, 3-(3-(12-(4-(8-acetoxy-5-chloroquinolin-7-yl)-1H-1,2,3-triazol-1-yl)dodecyloxy)propyl)-1-(12-(3-(pyridin-3-yl)propoxy)dodecyl)pyridinium chloride]
- inhibition at 50 µM: 3.4%

Reference: patent US10908153B2, “Pseudomonas aeruginosa inhibitor compounds” (priority 2015, dated 2021)
